Consider two compounds from PMC4856274, “Mnn10 Maintains Pathogenicity in Candida albicans by Extending α-1,6-Mannose Backbone to Evade Host Dectin-1 Mediated Antifungal Immunity” (PLoS Pathogens, 2016).

For the test, the target named is T1, Mnn10 (MBP-fused Mnn10) (Candida albicans, UniProt Q59UR2).
T1 construct: non-transmembrane region, residues 70-335, MBP fusion (pMAL-p5X), E. coli BL21 (DE3) pLysS, amylose resin; tag kept
As to the kind of experiment: mannosyltransferase assay, ANTS labelling of products, FACE gel. The format is biochemical. Conditions: 5 mM GDP-D-mannose, 10 mM α-1,6-D-mannobiose, 10 mM MnCl2, 50 mM HEPES pH 7.2, 30 °C, 1 h.

T1 sequence (Q59UR2 entry or part of it): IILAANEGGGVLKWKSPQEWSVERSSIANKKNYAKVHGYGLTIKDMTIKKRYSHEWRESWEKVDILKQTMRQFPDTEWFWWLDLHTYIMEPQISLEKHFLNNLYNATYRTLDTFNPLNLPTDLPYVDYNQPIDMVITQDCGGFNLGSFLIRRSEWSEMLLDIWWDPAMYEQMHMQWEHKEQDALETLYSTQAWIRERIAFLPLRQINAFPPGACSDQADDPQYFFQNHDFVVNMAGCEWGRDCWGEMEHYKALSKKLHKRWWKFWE

`Nc1nc2c(ncn2[C@@H]2O[C@H](COP(=O)(O)OP(=O)(O)O[C@H]3O[C@H](CO)[C@@H](O)[C@H](O)[C@@H]3O)[C@@H](O)[C@H]2O)c(=O)[nH]1` [GDP-mannose]: the “mannosyltransferase assay, ANTS labelling of products, FACE gel” value (donor) was “Mnn10 catalyzes the transformation of GDP-mannose to α-1,6-mannobiose to form mannotriose and mannotetraose”.

As to `OC[C@H]1O[C@H](OC[C@H]2OC(O)[C@@H](O)[C@@H](O)[C@@H]2O)[C@@H](O)[C@@H](O)[C@@H]1O` (stereo partly drawn) [α-1,6-mannobiose], the “mannosyltransferase assay, ANTS labelling of products, FACE gel” value (acceptor) was “required α-1,6-linked mannobiose as an acceptor and GDP-mannose as a donor”.
